Data published in patent US9302018B2, “Fluorescent probe for imaging lymph nodes” (Eisai R&D Management Co., Ltd., priority 2010, dated 2016).

Experiments:
[1] = Fluorescence lifetime (TemPro fluorescence lifetime photometer); type: physicochemical; conditions: excitation 740 nm, fluorescence 816 nm
Experimental: The fluorescence lifetimes of the fluorescence probes of the present invention were measured. The TemPro fluorescence lifetime photometer (manufactured by Horiba, Ltd.) was used for measurement. Table 3 indicates the values for a chloroform solution containing each near-infrared fluorescent dye at a concentration of 3.2×10^−2 mM and an aqueous solution of ICG (control), and Table 4 indicates values obtained from each of the near-infrared fluorescent dyes incorporated in the liposomes at a concentration of 3.2×10^−2 mM. A 740 nm semiconductor laser was used for the excitation light, and the lifetime spectra obtained at a fluorescence wavelength of 816 nm was analyzed for two components.

[2] = Maximum absorbance wavelength and molar extinction coefficient in ethanol; type: physicochemical; conditions: for Molar Extinction Coefficient (ε): in ethanol; for λmax (EtOH): maximum absorbance wavelength in ethanol
[3] = Fluorescence detectability of fluorescent probe in vitro (brightness score, Image J); type: physicochemical; conditions: excitation <780 nm, fluorescence >810 nm
Experimental: Near-infrared fluorescence intensity was measured for the fluorescent dye-containing liposomes prepared in the manner described above with an aqueous solution of ICG serving as a control. 100 μL of liposome suspension containing a dye of a predetermined concentration or the ICG aqueous solution were added to a 96-well plate and irradiated with excitation light (LED light source, <780 nm) to detect the generated fluorescence (>810 nm). Brightness was evaluated using Image J image processing software.
In the table, values indicate the brightness score as determined with the Image J software (maximum value: 255), with the values shown in parentheses indicate the standard deviation.

[4] = system: mouse popliteal lymph node; assay: Fluorescent probe anchoring property in mouse popliteal lymph node; type: in vivo
Experimental: In order to investigate the lymph node anchoring property of the fluorescent probe, an ICG-8-containing fluorescent probe dispersion (liposome mean particle diameter: 240 nm, 0.2 mL, phospholipid concentration: 10 mM) or an ICG aqueous solution serving as a control (0.2 mL, 3.2 mM) was injected into the foreleg of mice (FIG. 6A) in the same manner as Example 5. Ten minutes later, the epidermal tissue was peeled off, and the site was irradiated with excitation light (LED light source, <780 nm) and the generated fluorescence (>810 nm) was detected with a monochromatic camera.
To investigate primary lymph node anchoring rate after the passage of a prescribed amount of time, an ICG-8-containing fluorescent probe or ICG aqueous solution was administered to mice in the same manner as described above. […] The p-values were calculated using Fisher's exact test.

[5] = chloroform solution, 3.2×10^−2 mM

For CCCCCCN1/C(=C/C=C/C=C/C=C/C2=[N+](CCCCS(=O)(=O)[O-])c3ccc4ccccc4c3C2(C)C)C(C)(C)c2c1ccc1ccccc21 [ICG-8-C6, 4(2-((1E,3E,5E,7E)-7-(1,1-dimethyl-3-hexyl-1H-benzo[e]indol-2(3H)-ylidene)hepta-1,3,5-trienyl)-1,1-dimethyl-1H-benzo[e]indolium-3-yl)butane-1-sulfonic acid], the “Fluorescence lifetime, first component (%)” value [1, 5] was 69%, the “Fluorescence lifetime, first component (ns)” value [1, 5] was 1.25 ns and the “Fluorescence lifetime, second component (%)” value [1, 5] was 31%. For the same compound, the “Fluorescence lifetime, second component (ns)” value [1, 5] was 0.31 ns, the “Molar Extinction Coefficient (ε)” value [2] was 2.34×10^5 and the “λmax (EtOH)” value [2] was 787 nm.

For CC1(C)C(/C=C/C=C/C=C/C=C2\N(CCCCS(=O)(=O)[O-])c3ccc4ccccc4c3C2(C)C)=[N+](CCCCS(=O)(=O)[O-])c2ccc3ccccc3c21.[Na+] [ICG, Indocyanine green], the “brightness score (Image J, maximum value: 255), SD in parentheses” value (shortened to “brightness score … SD in parentheses”) ([3]; dye concentration 3.2 mM) was 27(5), the “brightness score … SD in parentheses” value ([3]; dye concentration 3.2 × 10−1 mM) was 38(6) and the “brightness score … SD in parentheses” value ([3]; dye concentration 3.2 × 10−2 mM) was 98(5). For the same compound, the “brightness score … SD in parentheses” value ([3]; dye concentration 3.2 × 10−3 mM) was 118(10), the “brightness score … SD in parentheses” value ([3]; dye concentration 3.2 × 10−4 mM) was 61(7) and the “Fluorescence lifetime, first component (ns)” value ([1]; aqueous solution (control)) was 0.01~0.15 ns. The “Molar Extinction Coefficient (ε)” value [2] was 1.47 × 10^5, the “λmax (EtOH)” value [2] was 787 nm and the “No. of mice in which fluorescence was observed in primary lymph node only/total no. of mice in experiment” value ([4]; 1 h elapsed from administration) was 0/4. For the same compound, the “No. of mice in which fluorescence was observed in primary lymph node only/total no. of mice in experiment” value ([4]; 3 h elapsed from administration) was 2/5, the “No. of mice in which fluorescence was observed in primary lymph node only/total no. of mice in experiment” value ([4]; 6 h elapsed from administration) was 0/4 and the “No. of mice in which fluorescence was observed in primary lymph node only/total no. of mice in experiment” value ([4]; 24 h elapsed from administration) was 0/3. The “Lymph nodes from which fluorescence was detected” value ([4]; mice, 0.2 mL into foreleg, ten minutes later, probe liposome mean particle diameter 240 nm, ICG aqueous solution 3.2 mM) was “emitted at the first popliteal lymph node from the foreleg as well as from the second external iliac lymph node”.

With CCCCN1/C(=C/C=C/C=C/C=C/C2=[N+](CCCCS(=O)(=O)[O-])c3ccc4ccccc4c3C2(C)C)C(C)(C)c2c1ccc1ccccc21 [ICG-8-C4, 4(2-((1E,3E,5E,7E)-7-(1,1-dimethyl-3-butyl-1H-benzo[e]indol-2(3H)-ylidene)hepta-1,3,5-trienyl)-1,1-dimethyl-1H-benzo[e]indolium-3-yl)butane-1-sulfonic acid] the “Molar Extinction Coefficient (ε)” value [2] was 2.52×10^5 and the “λmax (EtOH)” value [2] was 787 nm.

With CCCCCCCCN1/C(=C/C=C/C=C/C=C/C2=[N+](CCCCS(=O)(=O)[O-])c3ccc4ccccc4c3C2(C)C)C(C)(C)c2c1ccc1ccccc21 [ICG-8-C8, 4(2-((1E,3E,5E,7E)-7-(1,1-dimethyl-3-octyl-1H-benzo[e]indol-2(3H)-ylidene)hepta-1,3,5-trienyl)-1,1-dimethyl-1H-benzo[e]indolium-3-yl)butane-1-sulfonic acid] the “Molar Extinction Coefficient (ε)” value [2] was 2.63×10^5 and the “λmax (EtOH)” value [2] was 788 nm.

For CC1(C)C(/C=C/C=C/C=C/C=C2/N(CCC(=O)O)c3ccc4ccccc4c3C2(C)C)=[N+](CCCCS(=O)(=O)[O-])c2ccc3ccccc3c21 [ICG-6, 4-(2-((1E,3E,5E,7E)-7-(3-(2-carboxyethyl)-1,1-dimethyl-1H-benzo[e]indol-2-(3H)-ylidene)hepta-1,3,5-trienyl)-1,1-dimethyl-1H-benzo[e]indolium-3-yl)butane-1-sulfonic acid], the “Molar Extinction Coefficient (ε)” value [2] was 1.86×10^5 and the “λmax (EtOH)” value [2] was 786 nm.

In the case of CCCCCCCCCCN1/C(=C/C=C/C=C/C=C/C2=[N+](CCCCS(=O)(=O)[O-])c3ccc4ccccc4c3C2(C)C)C(C)(C)c2c1ccc1ccccc21 [ICG-8-C10, 4(2-((1E,3E,5E,7E)-7-(1,1-dimethyl-3-decyl-1H-benzo[e]indol-2(3H)-ylidene)hepta-1,3,5-trienyl)-1,1-dimethyl-1H-benzo[e]indolium-3-yl)butane-1-sulfonic acid], the “Fluorescence lifetime, first component (%)” value [1, 5] is reported as 67%, the “Fluorescence lifetime, first component (ns)” value [1, 5] is reported as 1.27 ns and the “Fluorescence lifetime, second component (%)” value [1, 5] is reported as 33%. The “Fluorescence lifetime, second component (ns)” value [1, 5] was 0.41 ns, the “Molar Extinction Coefficient (ε)” value [2] was 2.50 × 10^5 and the “λmax (EtOH)” value [2] was 788 nm.

With CCCCCCN(CCCCCC)c1ccc(OC2=C(/C=C/C3=[N+](CCCCS(=O)(=O)[O-])c4ccc5ccccc5c4C3(C)C)CCC/C2=C\C=C2\N(CCCCS(=O)(=O)[O-])c3ccc4ccccc4c3C2(C)C)cc1.[Na+] [ICG-9, sodium [4-(2-((E)-2-((E)-2-(4-(dihexyamino)phenoxy)-3-((E)-2-(1,1-dimethyl-3-(4-sulfonatebutyl)-1H-benzo[e]indol-2(3H)-ylidene)ethylidene)cyclohexenyl)vinyl)-1,1-dimethyl-1H-benzo[e]indolium-3-yl)butane-1-sulfonate]] the “Molar Extinction Coefficient (ε)” value [2] was 1.24×10^5 and the “λmax (EtOH)” value [2] was 810 nm.
